# Laboratory results: US8624034B2, “Fluoro-pyridinone derivatives useful as antibacterial agents” (Pfizer Inc., priority 2011, dated 2014)
# Experiments:
# [1] = molecular target: T1, Pseudomonas aeruginosa LpxC enzyme (Pseudomonas aeruginosa, UniProt P47205); assay: IC50 assay, LpxC enzyme from P. aeruginosa (PA LpxC enzyme IC50); assay type: biochemical; settings: Table 2; LpxC enzyme 0.1 nM, 25° C., 1 hour; read-out: PA:IC50
# T1 construct: made in house; host or cells: E. coli
# T1 sequence (P47205 1-303): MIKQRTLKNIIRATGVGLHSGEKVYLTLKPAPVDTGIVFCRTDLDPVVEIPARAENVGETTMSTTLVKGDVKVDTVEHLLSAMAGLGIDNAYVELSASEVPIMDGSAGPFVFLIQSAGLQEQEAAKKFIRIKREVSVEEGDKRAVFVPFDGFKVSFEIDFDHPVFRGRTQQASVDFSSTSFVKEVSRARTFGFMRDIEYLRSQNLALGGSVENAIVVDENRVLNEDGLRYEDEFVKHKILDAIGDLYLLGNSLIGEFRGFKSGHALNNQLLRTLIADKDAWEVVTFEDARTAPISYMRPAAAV
# In short: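 The LpxC reaction ran 1 hour and was stopped with HCl. Substrate-to-product conversion was measured by RapidFire mass spectrometry, and IC50 values were calculated from percent conversion relative to a no-enzyme control.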
# [2] = tested on: Acinetobacter baumannii/haemolyticus, multidrug-resistant clinical isolate (AB-3167); assay: MIC determination, AB-3167; assay type: cell-based; settings: Table 2, lower of duplicate values
# In short: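 Broth dilution MIC per CLSI M7-A8, 2-fold drug series, overnight incubation, lowest concentration visibly inhibiting growth against drug-free control. Run in duplicate, lower value reported; duplicates differing >2-fold repeated; QC strains and reference compounds required in range.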
# [3] = tested on: Escherichia coli EC-1: VOGEL, mouse virulent; assay: MIC determination, EC-1; assay type: cell-based; settings: Escherichia coli, read-out: EC-1 (MIC), Table 2, lower of duplicate values
# In short: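 MIC against mouse-virulent E. coli EC-1 (VOGEL) was determined by CLSI M7-A8 broth dilution with 2-fold drug increments and overnight incubation. The MIC is the lowest concentration with no visible growth versus drug-free control. Tests were run in duplicate and the lower value reported if within 2-fold, with QC organisms and reference drugs in each run.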
# [4] = tested on: Pseudomonas aeruginosa UI-18: wild-type (PA-7); assay: MIC determination, PA-7; assay type: cell-based; settings: Table 2, lower of duplicate values
# In short: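 P. aeruginosa UI-18 (wild-type) tested by CLSI broth dilution (M7-A8), 2-fold compound series incubated overnight. MIC read visually as lowest concentration preventing growth versus drug-free control; duplicates within 2-fold, lower value reported, with QC organisms and reference compounds in range.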
Structure (SMILES),IC50 [1],MIC [2],MIC [3],MIC [4]
"COc1ccc(-c2cc(=O)n(CC[C@](C)(C(=O)NO)S(C)(=O)=O)cc2F)cc1F [Example 19, (2R)-4-[5-Fluoro-4-(3-fluoro-4-methoxyphenyl)-2-oxopyridin-1(2H)-yl]-N-hydroxy-2-methyl-2-(methylsulfonyl)butanamide]",0.879 nM,> 64 µg/mL,2 µg/mL,1 µg/mL
"C[C@@](CCn1cc(F)c(-c2ccc(OC[C@H]3CC[C@H](O)CC3)cc2)cc1=O)(C(=O)NO)S(C)(=O)=O [Example 18, (2R)-4-[5-Fluoro-4-{4-[(trans-4-hydroxycyclohexyl)methoxy]phenyl}-2-oxopyridin-1(2H)-yl]-N-hydroxy-2-methyl-2-(methylsulfonyl)butanamide]",0.463 nM,> 64 µg/mL,0.125 µg/mL,1 µg/mL
"[2H]C([2H])([2H])C([2H])([2H])Oc1ccc(-c2cc(=O)n(CC[C@](C)(C(=O)NO)S(C)(=O)=O)cc2F)cc1 [Example 45, (2R)-4-[4-(4-Pentadeuteroethoxyphenyl)-5-fluoro-2-oxopyridin-1(2H)-yl]-N-hydroxy-2-methyl-2-(methylsulfonyl)butanamide]",0.547 nM,> 64 µg/mL,0.125 µg/mL,0.5 µg/mL
"COc1c(-c2ccccc2)c(F)cn(CC[C@](C)(C(=O)NO)S(C)(=O)=O)c1=O [Example 39, (2R)-4-(5-Fluoro-3-methoxy-2-oxo-4-phenylpyridin-1(2H)-yl)-N-hydroxy-2-methyl-2-(methylsulfonyl)butanamide]",8.07 nM,64 µg/mL,4 µg/mL,8 µg/mL
